Structures can show the parent of a compound that is named as a salt.

A word on the inhibition: it is the share of the control response that was lost under treatment.

For one assay, the target named is AaDOP2 (Aedes aegypti, UniProt H6D5H2). Put plainly: AaDOP2 antagonist screen of the LOPAC1280 library (HEK-CRELuc-Aadop2 cells, luminescence). Format: cell-based.
Chain of AaDOP2 (H6D5H2 1-476): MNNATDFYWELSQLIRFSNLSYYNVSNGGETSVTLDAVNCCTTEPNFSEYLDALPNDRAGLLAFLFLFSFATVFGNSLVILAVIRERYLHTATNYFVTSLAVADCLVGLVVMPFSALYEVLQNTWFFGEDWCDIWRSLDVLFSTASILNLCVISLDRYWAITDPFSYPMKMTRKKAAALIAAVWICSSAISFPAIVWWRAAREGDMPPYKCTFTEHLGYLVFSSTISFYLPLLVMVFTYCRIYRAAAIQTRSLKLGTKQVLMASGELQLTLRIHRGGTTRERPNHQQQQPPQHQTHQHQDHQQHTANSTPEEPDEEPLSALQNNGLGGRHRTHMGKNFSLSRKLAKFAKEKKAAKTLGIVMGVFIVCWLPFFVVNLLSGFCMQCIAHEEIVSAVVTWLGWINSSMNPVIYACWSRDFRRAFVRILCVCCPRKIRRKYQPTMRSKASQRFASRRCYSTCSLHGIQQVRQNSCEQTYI
Conditions: not given
With `CN(C)c1nc(N)c(C(=O)NC(=N)N)nc1Cl` [Compound 50, 5-(N,N-Dimethyl)amiloride hydrochloride], the “Compound effect (percent receptor signaling in presence of test compound, relative lux units relative to the SCH23390 control)” value came out at 108.

For `Cn1cnc([N+](=O)[O-])c1Sc1ncnc2nc[nH]c12` [Compound 51, Azathioprine], the “Compound effect (percent receptor signaling in presence of test compound, relative lux units relative to the SCH23390 control)” value was 103.

For `Nc1nc2c(ncn2COCCO)c(=O)[nH]1` [Compound 52, Acyclovir], the “Compound effect (percent receptor signaling in presence of test compound, relative lux units relative to the SCH23390 control)” value is 90.

As to `CN(C)CCCO[C@@H]1[C@H]2OC(C)(C)O[C@H]2O[C@@H]1[C@H](O)CO` [Compound 53, Amiprilose hydrochloride], the “Compound effect (percent receptor signaling in presence of test compound, relative lux units relative to the SCH23390 control)” value stood at 99.

For the compound `O=C1Cc2c([nH]c3ccc([N+](=O)[O-])cc23)-c2ccccc2N1` [Compound 54, Alsterpaullone], the “Compound effect (percent receptor signaling in presence of test compound, relative lux units relative to the SCH23390 control)” value came to 92.

For `N=C(N)NCCC[C@H](N)C(=O)O` [Compound 56, L-Arginine], the “Compound effect (percent receptor signaling in presence of test compound, relative lux units relative to the SCH23390 control)” value amounted to 94.

Turning to `CC(=O)N[C@@H](Cc1c[nH]c2ccccc12)C(=O)OCc1cc(C(F)(F)F)cc(C(F)(F)F)c1` [Compound 59, L-732,138], the “Compound effect (percent receptor signaling in presence of test compound, relative lux units relative to the SCH23390 control)” value was determined as 100.

With `CC(=O)Oc1ccccc1C(=O)O` [Compound 60, Acetylsalicylic acid], the “Compound effect (percent receptor signaling in presence of test compound, relative lux units relative to the SCH23390 control)” value is on record as 87.

In the case of `CC(C)CN(C)c1nc(N)c(C(=O)N=C(N)N)nc1Cl` [Compound 61, 5-(N-Methyl-N-isobutyl)amiloride], the “Compound effect (percent receptor signaling in presence of test compound, relative lux units relative to the SCH23390 control)” value stood at 72.

`CC(=O)SCC[N+](C)(C)C.[Cl-]` [Compound 62, Acetylthiocholine chloride]: the “Compound effect (percent receptor signaling in presence of test compound, relative lux units relative to the SCH23390 control)” value amounted to 122.

In the case of `C[C@]12CCC(=O)C(O)=C1CC[C@@H]1[C@@H]2CC[C@]2(C)C(=O)CC[C@@H]12` [Compound 63, 4-Androsten-4-ol-3,17-dione], the “Compound effect (percent receptor signaling in presence of test compound, relative lux units relative to the SCH23390 control)” value is listed as 107.

Consider `Br.Br.N=C(N)SCCN` [Compound 64, 2-(2-Aminoethyl)isothiourea dihydrobromide], for which the “Compound effect (percent receptor signaling in presence of test compound, relative lux units relative to the SCH23390 control)” value is given as 104.

Take `C[C@H](CCC(=O)NCCS(=O)(=O)O)[C@H]1CC[C@H]2[C@@H]3[C@H](O)C[C@@H]4C[C@H](O)CC[C@]4(C)[C@H]3C[C@H](O)[C@]12C` [Compound 66, Sodium Taurocholate]: the “Compound effect (percent receptor signaling in presence of test compound, relative lux units relative to the SCH23390 control)” value is 115.

Turning to `NCCCNCCSP(=O)(O)O` [Compound 67, Amifostine], the “Compound effect (percent receptor signaling in presence of test compound, relative lux units relative to the SCH23390 control)” value was 111.

In the case of `CC(=O)Nc1nnc(S(N)(=O)=O)s1` [Compound 68, Acetazolamide], the “Compound effect (percent receptor signaling in presence of test compound, relative lux units relative to the SCH23390 control)” value is given as 106.

On to `COC(=O)C1=CCCN(C)C1` [Compound 69, Arecoline hydrobromide], for which the “Compound effect (percent receptor signaling in presence of test compound, relative lux units relative to the SCH23390 control)” value worked out at 104.

As to `CCS(=O)(=O)Nc1cccc(C(=C2CCCCC2)c2cnc[nH]2)c1` [Compound 70, A-315456], the “Compound effect (percent receptor signaling in presence of test compound, relative lux units relative to the SCH23390 control)” value was 111.

Take `COc1ccc(CNC(=O)/C=C/c2ccc3[nH]cc(CCN(C)C)c3c2)cc1` [Compound 71, GR 4661]: the “Compound effect (percent receptor signaling in presence of test compound, relative lux units relative to the SCH23390 control)” value was determined as 114.

Consider `CCCCC[C@H](CC(=O)NO)C(=O)N[C@H](C(=O)N1CCC[C@H]1CO)C(C)C` [Compound 73, Actinonin], for which the “Compound effect (percent receptor signaling in presence of test compound, relative lux units relative to the SCH23390 control)” value was 96.

Turning to `CN(Cc1cnc2nc(N)nc(N)c2n1)c1ccc(C(=O)N[C@@H](CCC(=O)O)C(=O)O)cc1` [Compound 74, Methotrexate], the “Compound effect (percent receptor signaling in presence of test compound, relative lux units relative to the SCH23390 control)” value is 89.

For the compound `C[N+]1(C)[C@@H]2CC[C@H]1C[C@@H](OC(=O)C(CO)c1ccccc1)C2` (stereo partly drawn) [Compound 75, Atropine methyl bromide], the “Compound effect (percent receptor signaling in presence of test compound, relative lux units relative to the SCH23390 control)” value amounted to 105.

Regarding `CCNC(=O)N1CCN(CCCC(c2ccc(F)cc2)c2ccc(F)cc2)CC1` [Compound 76, Amperozide hydrochloride], the “Compound effect (percent receptor signaling in presence of test compound, relative lux units relative to the SCH23390 control)” value amounted to 17.

As to `NCCCCN=C(N)N` [Compound 78, Agmatine sulfate], the “Compound effect (percent receptor signaling in presence of test compound, relative lux units relative to the SCH23390 control)” value turned out to be 113.

Consider `Cl.Cl.N=C(N)c1ccc(N)cc1` [Compound 79, 4-Aminobenzamidine dihydrochloride], for which the “Compound effect (percent receptor signaling in presence of test compound, relative lux units relative to the SCH23390 control)” value is recorded as 106.

As for `NCCCP(=O)(O)O` [Compound 80, 3-Aminopropylphosphonic acid], the “Compound effect (percent receptor signaling in presence of test compound, relative lux units relative to the SCH23390 control)” value was determined as 101.

On to `CC(=O)N[C@@H](CS)C(=O)O` [Compound 81, N-Acetyl-L-Cysteine], for which the “Compound effect (percent receptor signaling in presence of test compound, relative lux units relative to the SCH23390 control)” value was 101.

In the case of `N[C@@H](CCCC(=O)O)C(=O)O` [Compound 82, L-2-aminoadipic acid], the “Compound effect (percent receptor signaling in presence of test compound, relative lux units relative to the SCH23390 control)” value worked out at 96.

`CC(=O)NCCc1c[nH]c2ccccc12` [Compound 83, N-Acetyltryptamine]: the “Compound effect (percent receptor signaling in presence of test compound, relative lux units relative to the SCH23390 control)” value turned out to be 42.

On to `N=C(N)NC(=O)c1nc(Cl)c(N)nc1N` [Compound 84, Amiloride hydrochloride], for which the “Compound effect (percent receptor signaling in presence of test compound, relative lux units relative to the SCH23390 control)” value came out at 110.

With `C[C@]12CC[C@@H](O)C[C@@H]1CC[C@@H]1[C@@H]2CC[C@]2(C)[C@@H](O)CC[C@@H]12` [Compound 86, 5alpha-Androstane-3alpha,17beta-diol], the “Compound effect (percent receptor signaling in presence of test compound, relative lux units relative to the SCH23390 control)” value was 98.

Take `C=CC[C@H](N)C(=O)O` [Compound 87, L-allylglycine]: the “Compound effect (percent receptor signaling in presence of test compound, relative lux units relative to the SCH23390 control)” value is 107.

For `NCCCCCC(=O)O` [Compound 89, 6-Aminohexanoic acid], the “Compound effect (percent receptor signaling in presence of test compound, relative lux units relative to the SCH23390 control)” value stood at 120.

In the case of `Oc1ncnc2[nH]ncc12` [Compound 91, Allopurinol], the “Compound effect (percent receptor signaling in presence of test compound, relative lux units relative to the SCH23390 control)” value was 101.

`CCCCc1oc2ccccc2c1C(=O)c1cc(I)c(OCCN(CC)CC)c(I)c1` [Compound 93, Amiodarone hydrochloride]: the “Compound effect (percent receptor signaling in presence of test compound, relative lux units relative to the SCH23390 control)” value is 104.

On to `Cl.NCCc1ccc(S(=O)(=O)F)cc1` [Compound 94, 4-(2-Aminoethyl)benzenesulfonyl fluoride hydrochloride], for which the “Compound effect (percent receptor signaling in presence of test compound, relative lux units relative to the SCH23390 control)” value was determined as 105.

For the compound `N=c1ccn2c(n1)O[C@H]1[C@H](O)[C@@H](CO)O[C@H]12` [Compound 95, Ancitabine hydrochloride], the “Compound effect (percent receptor signaling in presence of test compound, relative lux units relative to the SCH23390 control)” value is on record as 119.

Take `C=CCc1ccccc1OCC(O)CNC(C)C` (stereo not drawn) [Compound 96, Alprenolol hydrochloride]: the “Compound effect (percent receptor signaling in presence of test compound, relative lux units relative to the SCH23390 control)” value worked out at 104.

As to `CN(C)c1nc(N(C)C)nc(N(C)C)n1` [Compound 97, Altretamine], the “Compound effect (percent receptor signaling in presence of test compound, relative lux units relative to the SCH23390 control)” value was 105.

Regarding `C=CC[N+](C)(C)c1ccc(CCC(=O)CCc2ccc([N+](C)(C)CC=C)cc2)cc1.[Br-].[Br-]` [Compound 100, BW 284c51], the “Compound effect (percent receptor signaling in presence of test compound, relative lux units relative to the SCH23390 control)” value amounted to 93.

On to `Nc1ncnc2c1ncn2[C@@H]1O[C@H](CO)[C@@H](O)[C@H]1O` [Compound 101, Adenosine], for which the “Compound effect (percent receptor signaling in presence of test compound, relative lux units relative to the SCH23390 control)” value is reported as 96.

Consider `N[C@@H](CC(=O)O)C(=O)O` [Compound 102, L-Aspartic acid], for which the “Compound effect (percent receptor signaling in presence of test compound, relative lux units relative to the SCH23390 control)” value is 106.

With `CC1=C(/C=C/C(C)=C/C=C/C(C)=C/C=C/C=C(C)/C=C/C=C(C)/C=C/C2=C(C)C(=O)[C@@H](O)CC2(C)C)C(C)(C)C[C@H](O)C1=O` [Compound 103, Astaxanthin], the “Compound effect (percent receptor signaling in presence of test compound, relative lux units relative to the SCH23390 control)” value is given as 106.

Take `Nc1ccc(N2C(=O)c3ccccc3C2=O)c(Cl)c1` [Compound 104, N-(4-Amino-2-chlorophenyl)phthalimide]: the “Compound effect (percent receptor signaling in presence of test compound, relative lux units relative to the SCH23390 control)” value amounted to 99.

Still in this assay, the particulars now being: 10 µM compound, 300 nM dopamine, 2 hr; hit = compound effect <20.
For the compound `CCN(CC)CCNC(=O)c1ccc(NC(C)=O)cc1.Cl` [Compound 65, N-Acetylprocainamide hydrochloride], the “Compound effect (percent receptor signaling in presence of test compound, relative lux units relative to the SCH23390 control)” value is reported as 126%.

Consider `NCC(O)(CS(=O)(=O)O)c1ccc(Cl)cc1` (stereo not drawn) [Compound 72, 2-Hydroxysaclofen], for which the “Compound effect (percent receptor signaling in presence of test compound, relative lux units relative to the SCH23390 control)” value was determined as 110%.

Consider `NN=C(N)N.NN=C(N)N.O=S(=O)(O)O` [Compound 77, Aminoguanidine hemisulfate], for which the “Compound effect (percent receptor signaling in presence of test compound, relative lux units relative to the SCH23390 control)” value stood at 107%.

On to `Cl.Cl.NCCNS(=O)(=O)c1cccc2cnccc12` [Compound 88, H-9 dihydrochloride], for which the “Compound effect (percent receptor signaling in presence of test compound, relative lux units relative to the SCH23390 control)” value stood at 64%.

For the compound `CC(=O)NCCc1ccc(O)c(O)c1.O` [Compound 98, N-Acetyldopamine monohydrate], the “Compound effect (percent receptor signaling in presence of test compound, relative lux units relative to the SCH23390 control)” value worked out at 95%.

Regarding `Cl.N=C(N)NN` [Compound 99, Aminoguanidine hydrochloride], the “Compound effect (percent receptor signaling in presence of test compound, relative lux units relative to the SCH23390 control)” value was found to be 107%.

Turning to `NC(N)=NC(=O)c1nc(Cl)c(N2CCCCCC2)nc1N` [Compound 107, 5-(N,N-hexamethylene)amiloride], the “Compound effect (percent receptor signaling in presence of test compound, relative lux units relative to the SCH23390 control)” value stood at 82%.

Staying with this assay, now noted: read-out: % of the SCH23390 effect (percent inhibition of receptor response relative to the SCH23390 control).
Turning to `CCNC(=O)N1CCN(CCCC(c2ccc(F)cc2)c2ccc(F)cc2)CC1` [Compound 76, Amperozide hydrochloride], the inhibition at 10 µM came to 83%.
